From the supplement of paper PMC10307832 come the findings set out here.

Holding throughout (test): relative viability (nuclei count vs DMSO), 5 days (fraction); higher = more cells survive
Compound in the experiment “Axitinib + Trametinib”: CNC(=O)c1ccccc1Sc1ccc2c(/C=C/c3ccccn3)n[nH]c2c1 [Axitinib] + CC(=O)Nc1cccc(-n2c(=O)n(C3CC3)c(=O)c3c(Nc4ccc(I)cc4F)n(C)c(=O)c(C)c32)c1 [Trametinib] (partner 0.02 µM)
A digest of the protocol:
(§1)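 The day after seeding in 1536-well plates, lung cancer cell lines were treated by pin tool with a single drug, or with a fixed anchor-drug dose together with five library-drug doses (not always all listed) in √10 steps. After 5 days, a combined fix-and-stain solution (final 0.05% Triton X-100, 1% formaldehyde, 1 ug/ml Hoechst) was added. Nuclei counted on 4× images gave relative viability as treated counts over vehicle counts, reported as the median of duplicate plates.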

Compound in experiment [1]: CC1=CC=C(C=C1)C(=O)CN2C3=C(CCCC3)SC2=N [Pifithrin_alpha] + CS(=O)(=O)N1CCN(Cc2cc3nc(-c4cccc5[nH]ncc45)nc(N4CCOCC4)c3s2)CC1 [Pictilisib] (partner 1 µM)
A digest of the protocol: as §1

Compound in experiment [2]: CC1=CC=C(C=C1)C(=O)CN2C3=C(CCCC3)SC2=N [Pifithrin_alpha] + Nc1nc2[nH]cc(CCc3ccc(C(=O)N[C@@H](CCC(=O)O)C(=O)O)cc3)c2c(=O)[nH]1 [Pemetrexed] (partner 0.2 µM)
A digest of the protocol: as §1

Compound in the experiment “Bemcentinib + Alpelisib”: Nc1nc(Nc2ccc3c(c2)CC[C@@H](N2CCCC2)CC3)nn1-c1cc2c(nn1)-c1ccccc1CCC2 [Bemcentinib] + Cc1nc(NC(=O)N2CCC[C@H]2C(N)=O)sc1-c1ccnc(C(C)(C)C(F)(F)F)c1 [Alpelisib] (partner 2 µM)
A digest of the protocol: as §1

For the cell line NCI-H650, the relative viability with Axitinib + Trametinib (first compound 0.005 µM) was 1.04; with Axitinib + Trametinib (first compound 0.01581 µM), 1; with Axitinib + Trametinib (first compound 0.05 µM) it was 0.893; in the experiment with Axitinib + Trametinib (first compound 0.1581 µM), 0.869; with Axitinib + Trametinib (first compound 0.5 µM) it was 1.06; in experiment [1] (first compound 3.162 µM), 0.91. In addition, the relative viability in experiment [1] (first compound 10 µM) came out at 0.873; in experiment [1] (first compound 31.62 µM) it was 0.58; in experiment [1] (first compound 100 µM), 0.763; in experiment [2] (first compound 3.162 µM) it was 0.938; in experiment [2] (first compound 10 µM), 0.967; in experiment [2] (first compound 31.62 µM), 0.831. For the same cell line, the relative viability in experiment [2] (first compound 100 µM) amounted to 0.789; in the experiment with Bemcentinib + Alpelisib (first compound 0.04 µM), 1.01; with Bemcentinib + Alpelisib (first compound 0.1265 µM), 1.38; with Bemcentinib + Alpelisib (first compound 0.4 µM) it was 1.22; with Bemcentinib + Alpelisib (first compound 1.265 µM), 0.974; in the experiment with Bemcentinib + Alpelisib (first compound 4 µM) it was 1.06.
